Laboratory results reported in patent US12497370B2, “Isoxazoline derivatives” (Elanco Tiergesundheit AG, priority 2019, dated 2025).
Read-outs that look alike come from different tables or passages of the source.

How the values were obtained:
[1] = system: fleas (Ctenocephalides felis); assay: In vitro evaluation of ingestion activity against fleas; details: flea ingestion test, compound in organic bovine blood (0.5% DMSO), adult fleas, percent mortality between 2 h and 48 h post infestation, read-out: EC50 (the source's name)
Procedure: In Vitro Evaluation of Ingestion Activity Against Fleas (Ctenocephalides felis)
For flea ingestion tests, serial dilutions of the compound stock were performed using DMSO to achieve the desired range for EC50 and EC90 determination. An aliquot of each compound dilution was added to organic bovine blood with a final DMSO concentration of 0.5% and placed in an artificial feeding container. Fipronil is included to serve as a positive control. Ten newly emerged unfed adult fleas, 0-7 days old Ctenocephalides felis, from a laboratory colony, were aspirated into each vial or cage. The cages for flea ingestion assays were held in a temperature-controlled artificial feeding apparatus to allow continual access to organic bovine blood containing the desired concentration of compound. Fresh aliquots of compound-spiked bovine blood were provided daily for the duration of the study. Fleas were evaluated for percent mortality at various time points between 2 h and 48 h post infestation. Fleas showing normal movement and/or jumping ability were considered viable and those showing no movement after tapping the vials were scored as dead.

[2] = PK determination following administration to beagle dogs; assay type: in vivo; details: dog
Procedure: PK Determination Following Administration to Beagle Dogs
Behavior of single oral or intravenous dose of the desired compound was assessed in beagle dogs. The animals (n=6) received the compound by oral gavage (3 or 10 mg/kg) or intravenous dose (1 or 2 mg/kg). Blood samples were collected predose and at 0.25, 0.5, 1, 2, 4, 8, 24, 48, 72, 96, 168, 336, 504, 672, 1008, 1344, 1680, 2016, 2352, 2688, 2856 and 3024 h postdose. A portion of each whole blood sample was processed to plasma. Test article concentrations in plasma and whole blood were determined using LC-MS/MS.

[3] = in vivo, beagle dogs, single oral gavage (3 or 10 mg/kg) or intravenous dose (1 or 2 mg/kg), LC-MS/MS, read-out: Half-life (converted)
[4] = in vivo, beagle dogs, single oral gavage (3 or 10 mg/kg) or intravenous dose (1 or 2 mg/kg), LC-MS/MS, read-out: Plasma clearance (converted)

Row | Structure (SMILES) | LC50 [1] | clearance ([2]; beagle, in vivo) | half-life ([2]; beagle, in vivo) | half-life [2, 3] | other results
1 | Cc1cc(C2=NOC(c3cc(C(F)(F)F)cc(Cl)c3F)(C(F)(F)F)C2)ccc1C(=O)N[C@H]1CC[C@H](C#N)CC1 (single isomer, unassigned) [Example 3.92, N-(trans-4-cyanocyclohexyl)-2-methyl-4-[(5R or S)-5-[3-chloro-2-fluoro-5-(trifluoromethyl)phenyl]-5-(trifluoromethyl)-4H-isoxazol-3-yl]benzamide] | < 3 µg/mL | – | – | – | –
2 | Cc1cc(C2=NOC(c3cc(C(F)(F)F)cc(Cl)c3F)(C(F)(F)F)C2)ccc1C(=O)NC1(C)CSC1 (single isomer, unassigned) [Example 3.93, 2-methyl-N-(3-methylthietan-3-yl)-4-[(5R or S)-5-[3-chloro-2-fluoro-5-(trifluoromethyl)phenyl]-5-(trifluoromethyl)-4H-isoxazol-3-yl]benzamide] | < 1 µg/mL | – | – | – | –
3 | CS(=O)(=O)CC(=O)N1CC2(C1)OCc1cc(C3=NO[C@](c4cc(C(F)(F)F)cc(C(F)F)c4F)(C(F)(F)F)C3)ccc12 [1.1 or 1.2] | < 3 µg/mL | 2.36 mL/h/kg | 36 days | – | –
4 | O=C(CNC(=O)c1ccc(C2=NOC(c3cc(C(F)(F)F)cc(Cl)c3F)(C(F)(F)F)C2)c2ccccc12)NCC(F)(F)F (centres unmarked) [2.1 or 2.2] | < 1 µg/mL | 2.31 mL/h/kg | 45 days | – | –
5 | Cc1cc(C2=NOC(c3cc(C(F)(F)F)cc(Cl)c3F)(C(F)(F)F)C2)ccc1C(=O)NCC(=O)NCC(F)(F)F (centres unmarked) [3.1 or 3.2] | < 1 µg/mL | 2.55 mL/h/kg | 50 days | – | –
6 | Cc1cc(C2=NOC(c3cc(C(F)(F)F)cc(Cl)c3F)(C(F)(F)F)C2)sc1C(=O)NCC(=O)NCC(F)(F)F (centres unmarked) [4.1 or 4.2] | – | 2.36 mL/h/kg | 44 days | – | –
7 | O=C(CNC(=O)c1ccc(C2=NOC(c3cc(Cl)cc(C(F)(F)F)c3)(C(F)(F)F)C2)c2ccccc12)NCC(F)(F)F (centres unmarked) [afoxolaner, reference compound] | – | – | – | 15.5 days | clearance [2, 4]: 4.96 mL/h/kg
8 | Cc1cc(C2=NOC(c3cc(Cl)cc(Cl)c3)(C(F)(F)F)C2)ccc1C(=O)NCC(=O)NCC(F)(F)F (centres unmarked) [fluralaner, reference compound] | – | – | – | 12 to 15 days | –
9 | Cc1cc(C2=NO[C@@](c3cc(Cl)c(Cl)c(Cl)c3)(C(F)(F)F)C2)sc1C(=O)NCC(=O)NCC(F)(F)F [lotilaner, reference compound] | – | – | – | 25 days | clearance ([2]; plasma, beagle dogs, single oral gavage (3 or 10 mg/kg) or intravenous dose (1 or 2 mg/kg), LC-MS/MS, read-out: Plasma clearance (converted)): 7.5 mL/h/kg
10 | CS(=O)(=O)CC(=O)N1CC2(C1)OCc1cc(C3=NO[C@@](c4cc(Cl)c(F)c(Cl)c4)(C(F)(F)F)C3)ccc12 [sarolaner, reference compound] | – | – | – | 12 days | clearance [2, 4]: 7.21 mL/h/kg
